Reference: ChEMBL document CHEMBL1132350, “Quantitative structure-activity relationship modeling of dopamine D(1) antagonists using comparative molecular field analysis, genetic algorithms-partial least-squares, and K nearest neighbor methods” (J Med Chem, 1999)

target: D(1A) dopamine receptor (Rattus norvegicus) (UniProt P18901); settings: Striatum
Sequence (P18901 whole entry): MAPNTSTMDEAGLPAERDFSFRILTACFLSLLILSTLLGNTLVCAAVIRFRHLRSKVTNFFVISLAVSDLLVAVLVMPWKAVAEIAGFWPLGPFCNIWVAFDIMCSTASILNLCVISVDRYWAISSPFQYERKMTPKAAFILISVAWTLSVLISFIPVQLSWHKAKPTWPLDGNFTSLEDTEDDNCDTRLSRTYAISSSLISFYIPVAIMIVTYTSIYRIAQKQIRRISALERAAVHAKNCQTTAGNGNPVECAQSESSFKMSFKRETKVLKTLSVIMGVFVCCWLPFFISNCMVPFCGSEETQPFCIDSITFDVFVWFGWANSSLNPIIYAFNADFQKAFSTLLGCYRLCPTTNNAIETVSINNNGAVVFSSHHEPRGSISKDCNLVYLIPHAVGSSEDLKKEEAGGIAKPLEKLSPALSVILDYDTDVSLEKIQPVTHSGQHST
Description: Affinity towards dopamine receptor D1 in rat corpus striatum tissue.

SMILES | -Log K0.5
CN1CCc2ccc(O)cc2C1c1ccccc1 (stereo not given) | 6.37
CN1CCc2cc(Cl)c(O)cc2C1c1ccccc1Cl (stereo not given) | 8.43
CN1CCc2cc(Cl)c(O)cc2C1Cc1ccccc1 (stereo not given) | 7.24
Cc1cccc(C2c3cc(O)c(Cl)cc3CCN2C)c1 (stereo not given) | 8.38
CNCCCCCCN1CCc2cc(Cl)c(O)cc2C(c2ccccc2)C1 (stereo not given) | 6.86
CCCN1CCc2cc(Cl)c(O)cc2C1c1ccccc1 (stereo not given) | 7.05
CN(C)c1ccccc1CCN1CCc2cc(Cl)c(O)cc2C(c2ccccc2)C1 (stereo not given) | 7.43
NC1CCc2ccc(O)cc2C1c1ccccc1 (stereo not given) | 5.53
CN1CCc2cc(Cl)c(O)cc2C2c3ccccc3CCC21 (stereo not given) | 8.3
Cc1cccc(C)c1C1c2cc(O)c(Cl)cc2CCN1C (stereo not given) | 8.43
Cc1ccccc1C1c2cc(O)c(Cl)cc2CCN1C (stereo not given) | 8.43
CN(C)C1CCc2ccc(O)cc2C1c1ccccc1 (stereo not given) | 5.85
CNC1CCc2ccc(O)cc2C1c1ccccc1 (stereo not given) | 5.46
CN1CCc2cc(Cl)c(O)cc2C1c1ccccc1 (stereo not given) | 8.28
Oc1cc2c(cc1Cl)CCN1CCc3ccccc3C21 (stereo not given) | 5.68

Now from value to molecule:

-Log K0.5 | SMILES
7.97 | CN1CCc2cc(Br)c(O)cc2C1c1ccccc1 (stereo not given)
9.4 | CN1CCc2cc(Cl)c(O)cc2[C@@H](c2ccccc2)C1
8.56 | CC(C)c1ccccc1C1c2cc(O)c(Cl)cc2CCN1C (stereo not given)
5.82 | CCCN(C)C1CCc2ccc(O)cc2C1c1ccccc1 (stereo not given)
6.94 | CN(C)CCCCCCN1CCc2cc(Cl)c(O)cc2C(c2ccccc2)C1 (stereo not given)
5.96 | CN1CCc2ccccc2C2c3cc(O)c(I)cc3CCC21 (stereo not given)
7.54 | CN(C)c1ccccc1/C=C/N1CCc2cc(Cl)c(O)cc2C(c2ccccc2)C1 (stereo not given)
8.28 | Cc1ccc(C2c3cc(O)c(Cl)cc3CCN2C)cc1 (stereo not given)
8 | Cc1cccc(C2c3cc(O)c(Cl)cc3CCN2C)c1C (stereo not given)
6.02 | CCCNC1CCc2ccc(O)cc2C1c1ccccc1 (stereo not given)
